Reference: US20210171564A1, “COMPOSITIONS AND METHODS FOR THE TREATMENT OF CANCER” (Cellix Bio Private Limited, priority 2018, published 2021)
Several values for one entry are separate records, joined by “and”; a condition that tells them apart may be missing. Equal values may be shown once. Entries after “also recorded” stand apart in the source; their conditions may differ.

Tests used:
[1] = Toxicity profile in the xenograft study (mortality, clinical signs, body weight); assay type: in vivo; conditions: for Diarrhea / Hunch back / Morality: animals affected/10
Text: (§1) The purpose of this study was to evaluate the anti-tumor activity of test compound administered by oral gavage, for a period of 17 days in HCT116 human colon cancer xenograft bearing Foxn1 athymic nude mice. The anti-tumor activity of test compound was compared with capecitabine. Foxn1 athymic nude female mice (7-8 weeks) were implanted with human colon cancer cell line, HCT116 (5 million cells/site) subcutaneously in the dorsal right flank. The animals were randomized (N=10) into different treatment groups as vehicle control, test compound (300 mg/kg, QD, 150 mg/kg BID, 1000 mg/kg QD and 500 mg/kg BID or capecitabine (1000 mg/kg QD and 500 mg/kg BID) based on the tumor volume, when the subcutaneous tumor reached a volume in the range of 70-137 mm^3.
(§2) The animals in the control group were dosed with the formulation used for test compound, which consisted of 0.5% w/v HPMC+0.5% w/v Tween-80 in purified water (q.s) at the dose volume of […]. The Capecitabine formulation was prepared using 0.5% Hydroxypropyl methylcellulose (HPMC E 15) in 40 mM citrate buffer, pH 6.0 at the dose volume of 10 mL/kg. Treatment to animals was performed initially for ten days dosing followed by 2 off doses days and then continued for another 7 days. […] Tumor growth inhibition (TGI) was calculated based on the tumor volume on a given day as compared to that on day 1. On day 19, blood samples were collected from test compound 1000 mg/kg QD and Capecitabine 1000 mg/kg QD groups at 0 hr; prior to dosing (first dose administration in morning) and at 0.5, 1, 2, 4, 8 and 24 hours post dosing to evaluate the pharmacokinetic parameters of various metabolites (5′-DFCR, 5′-DFUR, 5-Fluorouracil and valproic acid).

[2] = test system: HCT116 human colon cancer xenograft; assay: Anti-tumor efficacy in HCT-116 xenograft model in Foxn1 nude mice (tumor growth inhibition); assay type: in vivo, Foxn1 athymic nude female mice; conditions: for % Tumor Growth Inhibition (% TGI): oral; for tumor growth inhibition: day not given
Text: Evaluation of Anti-Tumor Efficacy of Test Compound (CLX-Syn-G155A-C03) in HCT-116 Xenograft Model in Fox N1 Nude Mice:
as §1, §2

In the case of CCCCCOC(=O)Nc1nc(=O)n([C@@H]2O[C@H](C)[C@@H](O)[C@H]2O)cc1F [Capecitabine, reference compound], the “Mean % body weight reduction” value ([1]; 500 mg/kg BID) is reported as −16.8%, the Diarrhea ([1]; 500 mg/kg BID) is reported as 1/10 and the Hunch back ([1]; 500 mg/kg BID) is reported as 3/10. For the same compound, the Morality ([1]; 500 mg/kg BID) was 2/10, the “Mean % body weight reduction” value ([1]; 1000 mg/kg QD) was −24.5% and the Diarrhea ([1]; 1000 mg/kg QD) was 0/10. The Hunch back ([1]; 1000 mg/kg QD) was 3/10, the Morality ([1]; 1000 mg/kg QD) was “no mortality and 0/10” and the “% Tumor Growth Inhibition (% TGI)” value ([2]; 500 mg/kg BID, day 4) was 87.0%. For the same compound, the “% Tumor Growth Inhibition (% TGI)” value ([2]; 500 mg/kg BID, day 6) was 82.9%, the “% Tumor Growth Inhibition (% TGI)” value ([2]; 500 mg/kg BID, day 8) was 85.8% and the “% Tumor Growth Inhibition (% TGI)” value ([2]; 500 mg/kg BID, day 11) was 89.3%. For the same compound, the “% Tumor Growth Inhibition (% TGI)” value ([2]; 500 mg/kg BID, day 13) was 93.6%, the “% Tumor Growth Inhibition (% TGI)” value ([2]; 500 mg/kg BID, day 15) was 94.1% and the tumor growth inhibition ([2]; 500 mg/kg BID) was 87.6%. For the same compound, the tumor growth inhibition ([2]; 1000 mg/kg QD (once daily)) was 94.1%, the “% Tumor Growth Inhibition (% TGI)” value ([2]; 1000 mg/kg QD, day 4) was 76.8% and the “% Tumor Growth Inhibition (% TGI)” value ([2]; 1000 mg/kg QD, day 6) was 71.5%. The “% Tumor Growth Inhibition (% TGI)” value ([2]; 1000 mg/kg QD, day 8) was 71.7%, the “% Tumor Growth Inhibition (% TGI)” value ([2]; 1000 mg/kg QD, day 11) was 77.2% and the “% Tumor Growth Inhibition (% TGI)” value ([2]; 1000 mg/kg QD, day 13) was 86.9%. The “% Tumor Growth Inhibition (% TGI)” value ([2]; 1000 mg/kg QD, day 15) was 87.6%.

With CCCC(CCC)C(=O)Nc1nc(=O)n([C@@H]2O[C@H](C)[C@@H](OC(C)=O)[C@H]2OC(C)=O)cc1F [Test Compound, (2R,3R,4R,5R)-2-(5-fluoro-2-oxo-4-(2-propylpentanamido)pyrimidin-1(2H)-yl)-5-methyltetrahydrofuran-3,4-diyl diacetate] the “% Tumor Growth Inhibition (% TGI)” value ([2]; 150 mg/kg BID, day 4) was 37.4%, the “% Tumor Growth Inhibition (% TGI)” value ([2]; 150 mg/kg BID, day 6) was 40.2% and the “% Tumor Growth Inhibition (% TGI)” value ([2]; 150 mg/kg BID, day 8) was 39.2%. For the same compound, the “% Tumor Growth Inhibition (% TGI)” value ([2]; 150 mg/kg BID, day 11) was 47.6%, the “% Tumor Growth Inhibition (% TGI)” value ([2]; 150 mg/kg BID, day 13) was 55.7% and the “% Tumor Growth Inhibition (% TGI)” value ([2]; 150 mg/kg BID, day 15) was 54.7%. The “% Tumor Growth Inhibition (% TGI)” value ([2]; 300 mg/kg QD, day 4) was 58.8%, the “% Tumor Growth Inhibition (% TGI)” value ([2]; 300 mg/kg QD, day 6) was 51.0% and the “% Tumor Growth Inhibition (% TGI)” value ([2]; 300 mg/kg QD, day 8) was 55.5%. The “% Tumor Growth Inhibition (% TGI)” value ([2]; 300 mg/kg QD, day 11) was 60.7%, the “% Tumor Growth Inhibition (% TGI)” value ([2]; 300 mg/kg QD, day 13) was 67.2% and the “% Tumor Growth Inhibition (% TGI)” value ([2]; 300 mg/kg QD, day 15) was 70.4%. The “antitumor activity of once a day schedule versus twice a day schedule (150 mg/kg BID)” value ([2]; 300 mg/kg/day once daily) was “better antitumor activity”, the “% Tumor Growth Inhibition (% TGI)” value ([2]; 500 mg/kg BID, day 4) was 76.3% and the “% Tumor Growth Inhibition (% TGI)” value ([2]; 500 mg/kg BID, day 6) was 74.8%. For the same compound, the “% Tumor Growth Inhibition (% TGI)” value ([2]; 500 mg/kg BID, day 8) was 81.3%, the “% Tumor Growth Inhibition (% TGI)” value ([2]; 500 mg/kg BID, day 11) was 87.7% and the “% Tumor Growth Inhibition (% TGI)” value ([2]; 500 mg/kg BID, day 13) was 95.4%. The “% Tumor Growth Inhibition (% TGI)” value ([2]; 500 mg/kg BID, day 15) was 96.6%, the tumor growth inhibition ([2]; 1000 mg/kg QD (once daily)) was over 90% and the “% Tumor Growth Inhibition (% TGI)” value ([2]; 1000 mg/kg QD, day 4) was 66.0%. The “% Tumor Growth Inhibition (% TGI)” value ([2]; 1000 mg/kg QD, day 6) was 70.5%, the “% Tumor Growth Inhibition (% TGI)” value ([2]; 1000 mg/kg QD, day 8) was 73.3% and the “% Tumor Growth Inhibition (% TGI)” value ([2]; 1000 mg/kg QD, day 11) was 78.4%. The “% Tumor Growth Inhibition (% TGI)” value ([2]; 1000 mg/kg QD, day 13) was 88.1%, the “% Tumor Growth Inhibition (% TGI)” value ([2]; 1000 mg/kg QD, day 15) was 90.9% and the “antitumor activity against HCT-116 human colon cancer xenografts” value ([2]; oral gavage, QD and BID dosage regimen) was “statistically significant, dose dependent tumor growth inhibition; also recorded: statistically significant dose dependent antitumor activity”.
